Experimental data as given in US20250332138A1, “PHARMACEUTICAL COMPOSITION FOR PREVENTING OR TREATING MENTAL DISORDER” (Vivozon, Inc., priority 2022, published 2025).
pIC50: −log10 of the molar value.

Key:
[1] = system: neurons in the ventral tegmental area; details: cited from earlier work
mGluR5 = target: T1, mGluR5 (Homo sapiens, UniProt P41594); experiment: Fluorescence-based Ca2+ mobilization assay; details: HEK293 cell line overexpressing mGluR5; L-glutamate at EC80; Ca2+ level, FLIPR
T1 construct: expressed in transfected cells; host or cells: HEK293
Procedure: In order to measure the activity on the mGluR5, an experiment was carried out to check the change in the intracellular Ca^2+ level using the HEK293 cell line permenantly overexpressing the mGluR5. The cells in the cell culture medium were aliquoted into a 384-well plate coated with poly-D-lysine and cultured in a 37° C. incubator supplied with 5% CO2. The next day, the medium was removed and a dye loading buffer—in which a reagent capable of measuring Ca^2+ was dissolved—was added, and then incubated at 37° C. for 60 minutes. The test compounds were dissolved in 100% DMSO at a final concentration of 10 mM to make a stock solution. The starting concentration of 10 μM was prepared from the stock solution, followed by serial dilutions to prepare working solutions (test compound working solutions). The test compound working solutions were added to the cells that were incubated in the dye loading buffer, which were maintained for 30 minutes at room temperature in a light-shielding state before measurement. The Ca^2+ level change induced by L-glutamate at EC80 concentration was measured for 2 minutes using FLIPR Tetra (MDS Analytical Technologies). The fluorescent Ca^2+ signal values in the presence of the test compounds were normalized to the fluorescent singal elicited by EC80 concentration of L-glutamate as 100% and that elicited by vehicle as 0% to estimate % inhibition of the test compounds. The efficacy of the test compounds was calculated as IC50 values and represented in Table 2. (+: 500-1,000 nM, ++: 100-500 nM, +++: less than 100 nM).

human 5-HT2A receptor = target: T2, human 5-HT2A receptor (Homo sapiens, UniProt P28223); experiment: HTRF-based IP1 accumulation assay; details: HEK293 cell line overexpressing human 5-HT2A receptor; serotonin at EC80; IP1 production; read-out: Human 5-HT2AR (IC50)
T2 construct: expressed in transfected cells; host or cells: HEK293
Procedure: The 5-HT2A receptor antagonistic effect of the test compounds was confirmed by measuring the production amount of IP1 using the HEK293 cell line permanently overexpressing the human 5-HT2A receptor. The test compounds were dissolved in 100% DMSO to a final concentration of 10 mM. The starting concentration of 10 μM was prepared from the stock solution, followed by serial dilutions to prepare working solutions in a buffer containing lithium chloride (LiCl). The cells and compounds prepared in the test buffer were placed in a 96-well plate and incubated at room temperature for 10 minutes. Serotonin of EC80 concentration was added, followed by incubation at 37° C. for 30 minutes in a light-shielding state. To measure IP1 accumulation in cells, IP1-d2 acceptor and IP1-Cryptate donor—which are HTRF-based substances for fluorescence signals—were added and incubated for 1 hour at room temperature in a light-shielded state. The fluorescent emission signals of acceptor and donor were detected, and HTRF ratio values were substracted by mean value of serotonin control. The percentage of activation was calculated by normalization of the serotonin control (0%) and IP1 control (100%). The IC50 values of the test compounds are represented in Table 2. (+: 500-1,000 nM, ++: 100-500 nM, +++: less than 100 nM).

cocaine-addicted rats = details: cited from earlier work
male Sprague-Dawley rats = experiment: Acquisition of morphine intravenous self-administration (prevention of drug addiction); format: in vivo, rat; details: 8 days, vs solvent control
Procedure: The experimental animals and the experimental methods for intravenous self-administration were performed in a similar manner to Example 1, and Test Compounds A and C were used as the test compounds.
To investigate the preventive effect of the test compounds on morphine addiction, rats recovering from surgery were subjected to morphine intravenous self-administration (IVSA) for eight (8) consecutive days, with 2-hours sessions each day, using a fixed ratio of 1 (FR1) (0.1 mg/kg/infusion, 0.1 mL delivered within 4 seconds). Test compounds A and C were dissolved in water containing 0.5% HPMC (hydroxypropyl methylcellulose) and 1% Tween 80, and administered orally at doses of 5 mg/kg and 100 mg/kg, respectively, 2 hours before morphine IVSA. The preventive effects on acquisition of morphine IVSA were measured, and the results are represented in FIGS. 4 and 5.

[2] = system: patients with cocaine use disorder; details: 68 patients with cocaine use disorder; cited from earlier work
mouse = mouse tail suspension test; cited from earlier work
test animals [3] = details: injected into the amygdala; cited from earlier work
test animals [4] = details: injected into the amygdala; cited from earlier work; remark: listed apart in the source
amygdala = details: cited from earlier work
rat = rat forced swim test; cited from earlier work

T1 sequence (P41594 21-1212): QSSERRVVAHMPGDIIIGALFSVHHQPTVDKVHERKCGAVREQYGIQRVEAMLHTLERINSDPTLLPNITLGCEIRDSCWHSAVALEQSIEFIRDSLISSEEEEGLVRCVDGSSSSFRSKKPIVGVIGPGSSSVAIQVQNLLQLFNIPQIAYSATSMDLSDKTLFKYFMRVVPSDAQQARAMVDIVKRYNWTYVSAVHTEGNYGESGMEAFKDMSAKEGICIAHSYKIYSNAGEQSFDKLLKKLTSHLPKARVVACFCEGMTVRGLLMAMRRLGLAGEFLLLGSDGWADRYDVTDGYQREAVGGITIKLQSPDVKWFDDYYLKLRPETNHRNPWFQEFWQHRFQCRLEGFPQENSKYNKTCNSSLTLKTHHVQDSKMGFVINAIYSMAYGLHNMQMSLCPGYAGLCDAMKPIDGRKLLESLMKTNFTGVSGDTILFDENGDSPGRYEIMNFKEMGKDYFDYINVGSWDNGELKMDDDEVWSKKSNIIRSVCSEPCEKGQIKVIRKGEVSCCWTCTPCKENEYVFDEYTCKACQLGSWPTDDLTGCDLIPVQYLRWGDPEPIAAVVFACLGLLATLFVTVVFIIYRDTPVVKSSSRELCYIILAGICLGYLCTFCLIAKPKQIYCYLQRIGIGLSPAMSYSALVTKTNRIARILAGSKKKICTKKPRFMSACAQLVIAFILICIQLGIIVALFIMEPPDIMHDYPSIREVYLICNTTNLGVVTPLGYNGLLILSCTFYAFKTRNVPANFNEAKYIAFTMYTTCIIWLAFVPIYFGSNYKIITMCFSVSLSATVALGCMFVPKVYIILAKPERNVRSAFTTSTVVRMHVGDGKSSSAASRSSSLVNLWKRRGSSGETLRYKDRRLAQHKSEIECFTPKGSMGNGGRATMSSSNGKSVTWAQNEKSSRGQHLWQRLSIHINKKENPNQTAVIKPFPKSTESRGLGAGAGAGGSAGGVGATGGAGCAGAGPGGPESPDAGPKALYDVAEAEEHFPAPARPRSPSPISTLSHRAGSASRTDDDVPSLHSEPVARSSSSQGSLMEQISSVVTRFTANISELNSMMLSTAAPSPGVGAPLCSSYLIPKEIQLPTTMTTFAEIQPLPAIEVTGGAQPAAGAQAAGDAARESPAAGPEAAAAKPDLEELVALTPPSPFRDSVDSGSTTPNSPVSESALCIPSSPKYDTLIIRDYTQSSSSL
T2 sequence (P28223 whole entry): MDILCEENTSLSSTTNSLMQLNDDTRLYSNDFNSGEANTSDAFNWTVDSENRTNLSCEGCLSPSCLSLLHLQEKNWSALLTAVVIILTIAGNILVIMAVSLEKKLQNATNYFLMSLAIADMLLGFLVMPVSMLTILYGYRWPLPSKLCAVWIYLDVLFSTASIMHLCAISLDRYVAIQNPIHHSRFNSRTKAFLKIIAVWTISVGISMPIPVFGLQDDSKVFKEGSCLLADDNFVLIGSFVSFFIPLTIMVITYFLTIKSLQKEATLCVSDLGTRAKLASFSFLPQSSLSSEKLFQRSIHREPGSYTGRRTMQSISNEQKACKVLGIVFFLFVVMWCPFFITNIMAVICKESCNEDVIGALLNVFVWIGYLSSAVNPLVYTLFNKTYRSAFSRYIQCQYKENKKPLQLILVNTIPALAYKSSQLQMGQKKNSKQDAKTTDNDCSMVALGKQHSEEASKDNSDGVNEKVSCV

SMILES	pIC50 (mGluR5)	pIC50 (human 5-HT2A receptor)	other results
Cc1nc2sccn2c(=O)c1CCN1CCC(=C(c2ccc(F)cc2)c2ccc(F)cc2)CC1 [ritanserin]	–	–	dopamine secretion [1]: inhibited
O=C(NCC1(O)CCCCC1)c1ccc(C#Cc2ccc(F)cc2)cc1 [Compound 26, 4-((4-fluorophenyl)ethynyl)-N-((1-hydroxycyclohexyl)methyl)benzamide]	> 7.00	6.30 to 7.00	–
O=C(NC[C@@H]1CCOC1)c1ccc(C#Cc2ccc(F)cc2F)cc1 [Compound 19, (S)-4-((2,4-difluorophenyl)ethynyl)-N-((tetrahydrofuran-3-yl)methyl)benzamide]	6.30 to 7.00	–	–
O=C(c1ccc(F)cc1)C1CCN(CCn2c(=O)[nH]c3ccccc3c2=O)CC1 [ketanserin]	–	–	cocaine-induced increase in dopamine ([1]; pretreatment): suppressed; self-administration restored by signal stimulation (cocaine-addicted rats): reduced
COc1cccc([C@H](O)C2CCN(CCc3ccc(F)cc3)CC2)c1OC [Compound M100907]	–	–	dopamine secretion [1]: inhibited
CC1(CNC(=O)c2ccc(C#Cc3ccc(F)cc3F)cc2)CCOCC1 [Compound 24, 4-((2,4-difluorophenyl)ethynyl)-N-((4-methyltetrahydro-2H-pyran-4-yl)methyl)benzamide]	> 7.00	6.30 to 7.00	–
O=C(NCC1(O)CCCCC1)c1ccc(C#Cc2ccc(F)cc2F)cc1 [Compound 28, 4-((2,4-difluorophenyl)ethynyl)-N-((1-hydroxycyclohexyl)methyl)benzamide]	6.00 to 6.30	6.30 to 7.00	–
CC1(CNC(=O)c2ccc(C#Cc3ccccc3F)cc2)COC1 [Compound 6, 4-((2-fluorophenyl)ethynyl)-N-((3-methyloxetan-3-yl)methyl)benzamide]	–	–	number of injections (acquisition of morphine self-administration) (male Sprague-Dawley rats; 5 mg/kg orally 2 hours before morphine IVSA, FIG. 4): significantly lower
COc1cc(CC(C)N)c(OC)cc1I (stereo not drawn) [DOI, 1-[2,5-dimethoxy-4-iodophenyl]-2-aminopropane]	–	–	dopamine secretion [1]: promoted dopamine secretion
[2H]C(NC(=O)c1ccc(C#Cc2ccccc2F)cc1)C1(C)COC1 (stereo not drawn) [Compound 16, 4-((2-fluorophenyl)ethynyl)-N-((3-methyloxetan-3-yl)methyl-d)benzamide]	–	6.30 to 7.00	–
O=C(NCC1CCC1)c1ccc(C#Cc2ccc(F)cc2F)cc1 [Compound 30, N-(cyclobutylmethyl)-4-((2,4-difluorophenyl)ethynyl)benzamide]	6.30 to 7.00	6.30 to 7.00	–
O=C(NC[C@H]1CCOC1)c1ccc(C#Cc2ccc(F)cc2F)cc1 [Compound 18, (R)-4-((2,4-difluorophenyl)ethynyl)-N-((tetrahydrofuran-3-yl)methyl)benzamide]	6.30 to 7.00	–	–
O=C(NCC1(O)CCC1)c1ccc(C#Cc2ccc(F)cc2)cc1 [Compound 27, 4-((4-fluorophenyl)ethynyl)-N-((1-hydroxycyclobutyl)methyl)benzamide]	> 7.00	> 7.00	–
O=C(NCC1(O)CCC1)c1ccc(C#Cc2ccc(F)cc2F)cc1 [Compound 29, 4-((2,4-difluorophenyl)ethynyl)-N-((1-hydroxycyclobutyl)methyl)benzamide]	6.30 to 7.00	> 7.00	–
COC(=O)N1CC[C@@H]2[C@H]1CCC[C@@]2(O)C#Cc1cccc(C)c1 [mavoglurant]	–	–	clinical efficacy [2]: confirmed
Cc1cccc(C#Cc2ccccc2)n1 [MPEP]	–	–	immobility time (mouse): decreased immobility time in a dose-dependent manner; time the test animals spend in the bright area (test animals [3]): increased; number of entries into the open arm (test animals [4]): increased; time the test animals spend in the open arm (test animals [4]): increased; formation of long-term potentiation (LTP) in the amygdala (amygdala): inhibiting
O=C(NCC1CCOCC1)c1ccc(C#Cc2ccccc2F)cc1 [Compound 1, 4-((2-fluorophenyl)ethynyl)-N-((tetrahydro-2H-pyran-4-yl)methyl)benzamide]	–	–	number of injections (acquisition of morphine self-administration) (male Sprague-Dawley rats; 100 mg/kg orally 2 hours before morphine IVSA, FIG. 5): significantly lower
CC1(O)CC(CNC(=O)c2ccc(C#Cc3ccccc3F)cc2)C1 (stereo not drawn) [Compound 12, 4-((2-fluorophenyl)ethynyl)-N-(((1s,3s)-3-hydroxy-3-methylcyclobutyl)methyl)benzamide]	> 7.00	6.30 to 7.00	–
O=C(NCCC1CCOCC1)c1ccc(C#Cc2ccc(F)cc2F)cc1 [Compound 25, 4-((2,4-difluorophenyl)ethynyl)-N-(2-(tetrahydro-2H-pyran-4-yl)ethyl)benzamide]	6.30 to 7.00	> 7.00	–
Cc1nc(C#Cc2cccnc2)cs1 [MTEP, 3-[(2-methyl-1,3-thiazol-4-yl)ethynyl]pyridine]	–	–	immobility time (rat): reducing immobility time
